Experimental data published in patent US20260053932A1, “COMPOUNDS AND METHODS FOR THE TARGETED DEGRADATION OF ANDROGEN RECEPTOR AND ASSOCIATED METHODS OF USE” (Arvinas Operations, Inc., priority 2020, published 2026).

System: androgen receptor (AR) in LNCaP and/or VCaP cells
Assay: Androgen Receptor ELISA assay (AR degradation)
Format: cell-based
Conditions: LNCaP and/or VCaP cells; 5 hours incubation; media with R1881; read-out: DC50 Code* (degradation of AR ELISA)
In short: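 VCaP cells grown ≥3 days, then treated 5 h with compound in media containing 1 nM R1881 (10× stock). Cells lysed and AR quantified by sandwich ELISA (mouse AR detection Ab, HRP anti-mouse, TMB). DC50 and Dmax derived from AR degradation.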

Row | DC50 [nM] | Structure (SMILES)
1 | < 1 | CC(=O)N(CC1CCN(c2cnc(C(=O)N[C@H]3CC[C@H](Oc4cc(C)c(C#N)c(C)c4)CC3)cn2)CC1)[C@H]1C[C@H](Oc2ccc3c(c2)C(=O)N(C2CCC(=O)NC2=O)C3=O)C1 (some centres unmarked) [Compound 50, N-((1r,4r)-4-(4-cyano-3,5-dimethylphenoxy)cyclohexyl)-5-(4-((N-((1r,3r)-3-((2-(2,6-dioxopiperidin-3-yl)-1,3-dioxoisoindolin-5-yl)oxy)cyclobutyl)acetamido)methyl)piperidin-1-yl)pyrazine-2-carboxamide]
2 | < 1 | CCN(CC1CCN(c2cnc(C(=O)N[C@H]3CC[C@H](Oc4ccc(C#N)c(OC)c4)CC3)cn2)CC1)[C@H]1C[C@H](Oc2ccc3c(c2)C(=O)N(C2CCC(=O)NC2=O)C3=O)C1 (some centres unmarked) [Compound 33, N-((1r,4r)-4-(4-cyano-3-methoxyphenoxy)cyclohexyl)-5-(4-((((1r,3r)-3-((2-(2,6-dioxopiperidin-3-yl)-1,3-dioxoisoindolin-5-yl)oxy)cyclobutyl)(ethyl)amino)methyl)piperidin-1-yl)pyrazine-2-carboxamide]
3 | < 1 | COc1cc(O[C@H]2C[C@H](N(CC3CCN(c4cnc(C(=O)N[C@H]5CC[C@H](Oc6cc(C)c(C#N)c(C)c6)CC5)cn4)CC3)C(C)C)C2)cc2c1C(=O)N(C1CCC(=O)NC1=O)C2=O (some centres unmarked) [Compound 17, N-((1r,4r)-4-(4-cyano-3,5-dimethylphenoxy)cyclohexyl)-5-(4-((((1r,3r)-3-((2-(2,6-dioxopiperidin-3-yl)-7-methoxy-1,3-dioxoisoindolin-5-yl)oxy)cyclobutyl) (isopropyl)amino)methyl)piperidin-1-yl)pyrazine-2-carboxamide]
4 | < 1 | N#Cc1ccc(O[C@H]2CC[C@H](NC(=O)c3cnc(N4CCC(CN(CC5COC5)[C@H]5C[C@H](Oc6ccc7c(c6)CN(C6CCC(=O)NC6=O)C7=O)C5)CC4)cn3)CC2)cc1Cl (some centres unmarked) [Compound 13, N-((1r,4r)-4-(3-chloro-4-cyanophenoxy)cyclohexyl)-5-(4-((((1r,3r)-3-((2-(2,6-dioxopiperidin-3-yl)-1-oxoisoindolin-5-yl)oxy)cyclobutyl) (oxetan-3-ylmethyl)amino)methyl)piperidin-1-yl)pyrazine-2-carboxamide]
5 | < 1 | COc1cc(O[C@H]2CC[C@H](NC(=O)c3cnc(N4CC5(CC(CN(C(C)C)[C@H]6C[C@H](Oc7ccc8c(c7)C(=O)N(C7CCC(=O)NC7=O)C8=O)C6)C5)C4)nc3)CC2)ccc1C#N (some centres unmarked) [Compound 36, N-((1r,4r)-4-(4-cyano-3-methoxyphenoxy)cyclohexyl)-2-(6-((((1r,3r)-3-((2-(2,6-dioxopiperidin-3-yl)-1,3-dioxoisoindolin-5-yl)oxy)cyclobutyl) (isopropyl)amino)methyl)-2-azaspiro[3.3]heptan-2-yl)pyrimidine-5-carboxamide]
6 | < 1 | COc1cc(O[C@H]2CC[C@H](NC(=O)c3cnc(N4CCC(CN(C(C)C)[C@H]5CC[C@H](Oc6ccc7c(c6)CN(C6CCC(=O)NC6=O)C7=O)CC5)CC4)cn3)CC2)ccc1C#N (some centres unmarked) [Compound 19, N-((1r,4r)-4-(4-cyano-3-methoxyphenoxy)cyclohexyl)-5-(4-((((1r,4r)-4-((2-(2,6-dioxopiperidin-3-yl)-1-oxoisoindolin-5-yl)oxy)cyclohexyl) (isopropyl)amino)methyl)piperidin-1-yl)pyrazine-2-carboxamide]

Same assay, conditions: degradation of AR ELISA in LNCaP and/or VCaP cells; Table 2C; read-out: DC50 Code*

Row | DC50 [nM] | Structure (SMILES)
7 | < 1 | Cc1cc(O[C@H]2C(C)(C)[C@H](NC(=O)c3ccc(CN4CCOC[C@@H]4CN(C)[C@H]4C[C@H](Oc5ccc6c(c5)C(=O)N(C5CCC(=O)NC5=O)C6=O)C4)cc3)C2(C)C)cc(C)c1C#N (stereo partly drawn) [compound 151, N-((1r,3S)-3-(4-cyano-3,5-dimethylphenoxy)-2,2,4,4-tetramethylcyclobutyl)-4-(((3S)-3-((((1r,3S)-3-((2-(2,6-dioxopiperidin-3-yl)-1,3-dioxoisoindolin-5-yl)oxy)cyclobutyl) (methyl)amino)methyl)morpholino)methyl) benzamide]
8 | < 1 | COc1cc(O[C@H]2C(C)(C)[C@H](NC(=O)c3ccc(N4CCC(CN(C(C)C)[C@H]5C[C@H](Oc6cc(OC)c7c(c6)C(=O)N(C6CCC(=O)NC6=O)C7=O)C5)CC4)nn3)C2(C)C)ccc1C#N (some centres unmarked) [compound 102, N-((1r,3r)-3-(4-cyano-3-methoxyphenoxy)-2,2,4,4-tetramethylcyclobutyl)-6-(4-((((1r,3r)-3-((2-(2,6-dioxopiperidin-3-yl)-7-methoxy-1,3-dioxoisoindolin-5-yl)oxy)cyclobutyl) (isopropyl)amino)methyl)piperidin-1-yl)pyridazine-3-carboxamide]
9 | > 100 | Cc1cc(O[C@H]2C(C)(C)[C@H](NC(=O)c3cnc(N4CCC(CN(C(C)C)[C@H]5C[C@H](Oc6ccc7c(c6)CN(C6CCC(=O)NC6=O)C7=O)C5)CC4)cn3)C2(C)C)cc(C)c1C#N (mixture of isomers) [compound 126, rac-N-((1r,3r)-3-(4-cyano-3,5-dimethylphenoxy)-2,2,4,4-tetramethylcyclobutyl)-5-(4-((((1r,3r)-3-((2-(2,6-dioxopiperidin-3-yl)-1-oxoisoindolin-5-yl)oxy)cyclobutyl) (isopropyl)amino)methyl)piperidin-1-yl)pyrazine-2-carboxamide]
10 | < 1 | COCCN(CC1CCN(c2ccc(C(=O)N[C@H]3C(C)(C)[C@H](Oc4cc(C)c(C#N)c(C)c4)C3(C)C)cc2)CC1)[C@H]1C[C@H](Oc2cc3c(cc2OC)C(=O)N(C2CCC(=O)NC2=O)C3=O)C1 (mixture of isomers) [compound 170, rac-N-((1r,3r)-3-(4-cyano-3,5-dimethylphenoxy)-2,2,4,4-tetramethylcyclobutyl)-4-(4-((((1r,3r)-3-((2-(2,6-dioxopiperidin-3-yl)-6-methoxy-1,3-dioxoisoindolin-5-yl)oxy)cyclobutyl)(2-methoxyethyl)amino)methyl)piperidin-1-yl)benzamide]
11 | < 1 | CCN(CC1CCN(c2ccc(C(=O)N[C@H]3C(C)(C)[C@H](Oc4cc(C)c(C#N)c(C)c4)C3(C)C)cc2)CC1)[C@H]1C[C@H](Oc2ccc3c(c2)C(=O)N(C2CCC(=O)NC2=O)C3=O)C1 (some centres unmarked) [compound 168, N-((1r,3r)-3-(4-cyano-3,5-dimethylphenoxy)-2,2,4,4-tetramethylcyclobutyl)-4-(4-((((1r,3r)-3-((2-(2,6-dioxopiperidin-3-yl)-1,3-dioxoisoindolin-5-yl)oxy)cyclobutyl) (ethyl)amino)methyl)piperidin-1-yl) benzamide]
12 | < 1 | Cc1cc(O[C@H]2C(C)(C)[C@H](NC(=O)c3ccc(N4CCC(N(C)[C@H]5C[C@H](Oc6ccc7c(c6)C(=O)N(C6CCC(=O)NC6=O)C7=O)C5)CC4)cc3)C2(C)C)cc(C)c1C#N (mixture of isomers) [compound 157, rac-N-((1r,3r)-3-(4-cyano-3,5-dimethylphenoxy)-2,2,4,4-tetramethylcyclobutyl)-4-(4-(((1r,3r)-3-((2-(2,6-dioxopiperidin-3-yl)-1,3-dioxoisoindolin-5-yl)oxy)cyclobutyl) (methyl)amino)piperidin-1-yl)benzamide]
13 | < 1 | Cc1cc(O[C@H]2C(C)(C)[C@H](NC(=O)c3ccc(N4CCC(CN(C(C)C)[C@H]5C[C@H](Oc6ccc7c(c6)C(=O)N([C@H]6CCC(=O)NC6=O)C7=O)C5)CC4)cc3)C2(C)C)cc(C)c1C#N [compound 205, N-((1r,3r)-3-(4-cyano-3,5-dimethylphenoxy)-2,2,4,4-tetramethylcyclobutyl)-4-(4-((((1S,3r)-3-((2-((S)-2,6-dioxopiperidin-3-yl)-1,3-dioxoisoindolin-5-yl)oxy)cyclobutyl) (isopropyl)amino)methyl)piperidin-1-yl)benzamide]
14 | < 1 | Cc1cc(O[C@H]2C(C)(C)[C@H](NC(=O)c3cnc(N4CC(CN5CCC(Oc6ccc7c(c6)C(=O)N(C6CCC(=O)NC6=O)C7=O)CC5)C4)cn3)C2(C)C)cc(C)c1C#N (some centres unmarked) [compound 117, N-((1r,3r)-3-(4-cyano-3,5-dimethylphenoxy)-2,2,4,4-tetramethylcyclobutyl)-5-(3-((4-((2-(2,6-dioxopiperidin-3-yl)-1,3-dioxoisoindolin-5-yl)oxy)piperidin-1-yl)methyl)azetidin-1-yl)pyrazine-2-carboxamide]
15 | > 100 | CC1(C)[C@H](NC(=O)c2ccn([C@H]3CC[C@H](CCCOc4ccc5c(c4)C(=O)N(C4CCC(=O)NC4=O)C5=O)CC3)n2)C(C)(C)[C@H]1Oc1ccc(C#N)c(Cl)c1 (stereo partly drawn) [compound 140, N-((1r,3R)-3-(3-chloro-4-cyanophenoxy)-2,2,4,4-tetramethylcyclobutyl)-1-((1r,4R)-4-(3-((2-(2,6-dioxopiperidin-3-yl)-1,3-dioxoisoindolin-5-yl)oxy)propyl)cyclohexyl)-1H-pyrazole-3-carboxamide]
16 | < 1 | COc1cc(O[C@H]2C(C)(C)[C@H](NC(=O)c3ccc(N4CC(CN(C(C)C)[C@H]5C[C@H](Oc6ccc7c(c6)C(=O)N(C6CCC(=O)NC6=O)C7=O)C5)C4)cc3)C2(C)C)ccc1C#N (mixture of isomers) [compound 176, rac-N-((1r,3r)-3-(4-cyano-3-methoxyphenoxy)-2,2,4,4-tetramethylcyclobutyl)-4-(3-((((1r,3r)-3-((2-(2,6-dioxopiperidin-3-yl)-1,3-dioxoisoindolin-5-yl)oxy)cyclobutyl) (isopropyl)amino)methyl)azetidin-1-yl)benzamide]
17 | < 1 | Cc1cc(O[C@H]2C(C)(C)[C@H](NC(=O)c3ccc(N4CCC(CN5CCOC[C@@H]5COc5ccc6c(c5)C(=O)N(C5CCC(=O)NC5=O)C6=O)CC4)cc3)C2(C)C)cc(C)c1C#N (stereo partly drawn) [compound 213, N-((1r,3R)-3-(4-cyano-3,5-dimethylphenoxy)-2,2,4,4-tetramethylcyclobutyl)-4-(4-(((3R)-3-(((2-(2,6-dioxopiperidin-3-yl)-1,3-dioxoisoindolin-5-yl)oxy)methyl)morpholino)methyl)piperidin-1-yl)benzamide]
